Data reported in patent US20070202047A1, “Polyamine-substituted ligands for use as contrast agents” (priority 2006, published 2007).

How the values were obtained:
B16 melanoma cells = assay: Intracellular uptake of gadolinium complexes (ICP-MS); assay type: cell-based, mouse; conditions: 24-h incubation; for intracellular uptake of gadolinium complex: B16 melanoma cells, 10 μM
Method: Cell culture. B16 melanoma cells (mouse) and MH3924A Morris hepatoma cells (rat) were obtained from the German Cancer Research Center (DKFZ) tumor bank and grown at 37° C. as stock cultures in RPMI 1640 supplemented with 10% fetal calf serum and 1% glutamine as standard medium under a 5% CO2 atmosphere (all components: Pan Biotech GmbH, Aidenbach, Germany). For contrast agent uptake studies 10^6 cells were inoculated into 25 cm^2 culture flasks (BD Biosciences, Bedford, USA) and grown for 24 h in 10 mL of the standard culture medium. Cells were then incubated for an additional 24 h (1 h for temperature dependence studies) with fresh medium containing 0, 1, 2.5, 5 or 10 μM of the selected gadolinium complex (three replicate flasks for each incubation). Afterwards the medium was removed, cells were trypsinated, washed twice, resuspended in culture medium and counted (typical yields: 3.5-6 million cells). For comparison 2.5×10^5 human melanocytes (Promo Cell, Heidelberg, Germany) were incubated for 24 h with melanocyte growth medium (Promo Cell, Heidelberg, Germany) containing 0, 1, 2.5, 5 or 10 μM of the selected gadolinium complex (two replicate flasks for each incubation). The work up procedure was as described above typically yielding 2.5×10^5 cells. Cultured human hepatocytes (Cytonet GmbH, Weinheim, Germany) embedded in a collagen matrix in a 12 well microtiter plate, with 6×10^5 viable cells per well were incubated for 24 h in hepatocyte growth medium (Cytonet GmbH, Weinheim, Germany) containing the same concentration series of selected gadolinium complexes. Afterwards the medium was removed, cells were separated using collagenase (Roche Diagnostics, Mannheim, Germany). After digestion the cells were washed twice with PBS, resuspended in culture medium and counted (typical yields: 6×10^5 cells per tube). The intracellular gadolinium content was determined by ICP-MS as described below.
(§1) ICP-MS. Samples containing the above mentioned number of harvested cells were digested with 50% concentrated HNO3 (Superselect; Merck, Darmstadt, Germany) under microwave heating with a Mars 5 apparatus (CEM GmbH, Kamp-Lintfort, Germany). To each sample 100 μL of an aqueous solution of rhodium chloride (1 μg/mL) were added so that Rh-103 could be used as an internal quantification standard. Gd-160 measurements were performed with the ICP-MS instrument mentioned above. The gadolinium concentrations were determined using standard curves created prior to cell analyses. For each uptake incubation condition triplicate cell samples were analyzed, and Gd content for each sample was recorded as the mean of two MS determinations.
Intracellular Uptake of Gadolinium Complexes. B16 melanoma and MH3924A hepatoma cells as well as human melanocytes and hepatocytes were incubated for 24 h in the presence of the gadolinium complexes shown in FIG. 1, using concentrations in the range of 1-10 μM. Incubations with the unsubstituted [Gd(DTPA)(H2O)]^2−complex (Magnevist®) served as controls. Following cell harvest and hydrolysis, inductively coupled plasma mass spectrometry (ICP-MS) with direct detection of gadolinium was used to quantitate complex uptake (triplicate cultures for each incubation).
Cell Uptake Studies. A493 (human kidney), B16 melanoma cells (mouse), HeLa (human cervix), MCF-7 (human breats), MH3924A (Morris hepatoma) cells (rat) and 3T3 NIH (mouse fibroblasts) were obtained from the DKFZ tumor cell collection. 3×10^6 cells of each cell type were grown for 24 hours in culture flasks. Afterwards they were incubated for 1 hour in 10 mL culture media containing 0, 10, 50 and 100 μM of Gd-2.2. Gd-3.2 or Gd-4.2. Afterwards the medium was removed, the cells were trypsinated, washed twice, resuspended in culture medium and counted. The gadolinium uptake was determined in triplicate. […] cells were incubated with 0, 1, 2.5, 5 and 10 μM of the Gd-1.2. and Gd-5.2. for 24 h. […]

MH3924A cells = assay: Subcellular distribution; assay type: cell-based, rat; conditions: 100 μM, 24 h, 37° C.
Method: Subcellular distribution. 5×10^6 MH3924A cells were grown in 25 cm^2 culture flasks (BD Biosciences, Bedford, USA) for 24 h in 10 mL of the standard culture medium. Cells were then incubated for an additional 24 h with 100 μM Gd-5.1. Afterwards the medium was removed, cells were trypsinated. Then the organelles were isolated with the Subcellular Proteome Extraction Kit ProteoExtract® (Merck, Darmstadt, Germany) according to the instructions of the manufacturer. Four fractions were obtained: Cytosol, membrane organelles (mainly mitochondria), nucleus and cytoskeleton (with associated endosomes and lysosomes). The gadolinium content for each fraction was determined by ICP-MS as described below.
as §1

[1] = Biodistribution and excretion in tumor-bearing ACI rats; assay type: in vivo, rat; conditions: for gadolinium obtained in the faeces / gadolinium obtained in the urine: 24 h after injecting
Method: Animal models. For in vivo tumor studies 2×10^6 MH3924A tumor cells were injected subcutaneously into the right thigh of male ACI rats (Charles River, Sulzfeld, Germany) weighing 220 to 260 g. All animal experiments were performed in compliance with the German Animal Protection Laws (Permission 35-9185.81/G-7-03, Reg.-Praesidium, Karlsruhe, Germany).
Biodistribution and excretion data. At 14 days after tumor inoculation, when tumors had reached a diameter of ca. 5-6 mm, the biodistribution experiments were initiated. Each animal (210-250 g) was given an intravenous tail-vein injection of […] Magnevist® (Schering, Berlin, Germany) or […] of Gd-5.1. or Gd-6.1. 1 h and 24 hs post-injection (p.i.), the animals were weighed, sacrificed by cervical dislocation and dissected. Organs or tissues were blotted dry and weighed. Samples containing 100-500 mg of the tumor or organs were digested with concentrated HNO3 (Superselect; Merck, Darmstadt, Germany) and H2O2 under microwave heating with a Mars 5 apparatus (CEM GmbH, Kamp-Lintfort, Germany). To each sample 100 μL of an aqueous solution of rhodium chloride (1 μg/mL) were added so that Rh-103 could be used as an internal quantification standard. Gd-160 measurements were performed with the ICP-MS instrument mentioned above. The gadolinium concentrations were determined using standard curves created prior to tissue analyses. The results were expressed as % ID/g tissue. Urine and faeces were gathered in order to measure the excreted amount of Gd(III).

[2] = 1 h post i.v. injection, one ACI rat, scaled to Gd dose of 100 μmol/kg
[3] = 24 h post i.v. injection, one ACI rat
[4] = 24 h post i.v. injection, one ACI rat, scaled to Gd dose of 100 μmol/kg

Row | Gd concentration, Blood [1, 2] [nmol/g] | Gd concentration, Bone (femur) [1, 2] [nmol/g] | Gd concentration, Bone Marrow (femur) [1, 2] [nmol/g] | Gd concentration, Kidney (+urine) [1, 2] [nmol/g] | Gd concentration, Liver [1, 2] [nmol/g] | Gd concentration, Lung [1, 2] [nmol/g] | Gd concentration, Small Intestine [1, 2] [nmol/g] | Gd concentration, Tumor (MH3924A) [1, 2] [nmol/g] | gadolinium obtained in the faeces ([1]; ACI rat) | gadolinium obtained in the urine ([1]; ACI rat) [%] | Excretion as % of total dose [1, 3] [%] | Gd concentration, Blood [1, 4] [nmol/g] | Gd concentration, Bone (femur) [1, 4] [nmol/g] | Gd concentration, Bone Marrow (femur) [1, 4] [nmol/g] | Gd concentration, Faeces [1, 4] [nmol/g] | Gd concentration, Kidney (+urine) [1, 4] [nmol/g] | Gd concentration, Liver [1, 4] [nmol/g] | Gd concentration, Lung [1, 4] [nmol/g] | Gd concentration, Small Intestine [1, 4] [nmol/g] | SMILES | intracellular uptake of gadolinium complex (B16 melanoma cells) [fmol/cell] | further results
1 | – | – | – | – | – | – | – | – | – | – | – | – | – | – | – | – | – | – | – | CCN(CC)CCNC(=O)CN(CCN(CCN(CC(=O)[O-])CC(=O)N(CCN)CCN)CC(=O)[O-])CC(=O)[O-].[Gd+3] [Gd-3.1] | 0.082±0.004 | fold increase in intracellular accumulation versus complex of ligand 2.1 (B16 melanoma cells; cell line not stated): 2.87
2 | 7.8 | 2.2 | 0.8 | 120.3 | 4.2 | 12.7 | 18.9 | 5.5 | about 1% | 98 | 98 | 0.1 | 0.9 | 1.7 | 16.6 | 40.9 | 2.0 | 24.2 | 0.4 | NCCN(CCN)C(=O)CN(CCN(CCN(CC(=O)[O-])CC(=O)N(CCN)CCN)CC(=O)[O-])CC(=O)[O-].[Gd+3] [Gd-5.1] | 0.027±0.002 | subcellular concentration, cytoplasma (MH3924A cells): 0.026 fmol/cell; subcellular concentration, cytoskeleton fraction (MH3924A cells): 0.065 fmol/cell; subcellular concentration, nucleus (MH3924A cells): 0.015 fmol/cell; Gd concentration, Brain [1, 2]: 0.5 nmol/g; Gd concentration, Muscle (femur) [1, 2]: 1.6 nmol/g; Gd concentration, Spleen [1, 2]: 4.7 nmol/g; Gd concentration, Urine (cumulative) [1, 2]: 2116.7 nmol/g; Gd concentration, Tumor (MH3924A) [1, 4]: 0.6 nmol/g; Gd concentration, Urine (cumulative) [1, 4]: 537.2 nmol/g; agent still present in the tumor ([1]; 24 h post injection, MH3924A tumor, ACI rat): about 0.020 fmol/cell; preferential tissue binding (biodistribution) ([1]; ACI rat bearing MH3924A tumor, i.v.): binds preferentially to lung tissue and parts of the excretory system e.g. small intestine and kidneys
3 | 4.8 | 3.3 | 0.9 | 141.6 | 6.6 | 20.2 | 4.0 | 7.2 | about 1% | 98 | 94 | 0.1 | 1.0 | 2.3 | 41.4 | 62.3 | 5.5 | 5.9 | 0.1 | NCCCCN(CCCN)C(=O)CN(CCN(CCN(CC(=O)[O-])CC(=O)N(CCCN)CCCCN)CC(=O)[O-])CC(=O)[O-].[Gd+3] [Gd-6.1] | – | Gd concentration, Tumor (MH3924A) [1, 4]: 0.8 nmol/g; Gd concentration, Urine (cumulative) [1, 4]: 650.9 nmol/g
